According to PubChem BioAssay AID248 (DTP/NCI, 2004):
Values joined by “and” are separate entries in the source; they are usually repeats but may differ in a detail not shown here. Identical values can stand only once. Inconclusive results and toxic doses are left out. No stated cut-off is given here; in the data, active means T/C of 150% or more; inactive means T/C below 125%.

Test system: L1210 leukemia ip in BDF1 mice, survival T/C
Assay: NCI In Vivo Anticancer Drug Screen. Data for tumor model L1210 Leukemia (intraperitoneal) in B6D2F1 (BDF1) mice
Conditions: endpoint: mean survival time, higher = longer survival
In short: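 Tumor was transplanted into mice, which were then dosed with test compound or vehicle alone. Survival was recorded for each group, and the treated figure was expressed relative to the control figure.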

[1] = dose: 75.0 mg/kg/injection, schedule: Q01DX009 (ip), vehicle: Klucel (hydroxypropylcellulose) (HPC)
[2] = dose: 150.0 mg/kg/injection, schedule: Q04DX003 (ip), vehicle: Klucel (hydroxypropylcellulose) (HPC)
[3] = dose: 100.0 mg/kg/injection, schedule: Q04DX003 (ip), vehicle: Klucel (hydroxypropylcellulose) (HPC)

Measured: T/C

O=[N+]([O-])c1ccc(Oc2ccccc2)c(Cl)c1
inactive: [1] 101 % of control | dose: 75.0 mg/kg/injection, schedule: Q04DX003 (ip), vehicle: Klucel (hydroxypropylcellulose) (HPC) 96 % of control | dose: 150.0 mg/kg/injection, schedule: Q01DX009 (ip), vehicle: Klucel (hydroxypropylcellulose) (HPC) 108 % of control | [2] 110 % of control | dose: 300.0 mg/kg/injection, schedule: Q01DX009 (ip), vehicle: Klucel (hydroxypropylcellulose) (HPC) 108 % of control | dose: 300.0 mg/kg/injection, schedule: Q04DX003 (ip), vehicle: Klucel (hydroxypropylcellulose) (HPC) 93 % of control

NC(CSC1c2ccccc2-c2ccccc21)C(=O)O (stereo unspecified)
inactive: dose: 75.0 mg/kg/injection, schedule: Q01DX001 (ip), vehicle: carboxymethylcellulose (CMC) 96 % of control | dose: 150.0 mg/kg/injection, schedule: Q01DX001 (ip), vehicle: carboxymethylcellulose (CMC) 98 % of control | dose: 300.0 mg/kg/injection, schedule: Q01DX001 (ip), vehicle: carboxymethylcellulose (CMC) 101 % of control

C1CCN(c2c3c(nc4nnnn24)CCC3)CC1
inactive: dose: 5.0 mg/kg/injection, schedule: Q01DX001 (ip), vehicle: other 98 % of control | dose: 10.0 mg/kg/injection, schedule: Q01DX001 (ip), vehicle: other 96 % of control | dose: 20.0 mg/kg/injection, schedule: Q01DX001 (ip), vehicle: other 98 % of control | dose: 40.0 mg/kg/injection, schedule: Q01DX001 (ip), vehicle: other 110 % of control | dose: 80.0 mg/kg/injection, schedule: Q01DX001 (ip), vehicle: other 96 % of control | dose: 100.0 mg/kg/injection, schedule: Q01DX001 (ip), vehicle: other 96 % of control | dose: 200.0 mg/kg/injection, schedule: Q01DX001 (ip), vehicle: other 96 % of control

CC(C)(C(=O)[O-])C(=O)O.[Co+3].[NH2-].[NH2-].[NH2-].[NH2-].[NH2-].[O-][Cl+3]([O-])([O-])O
inactive: dose: 100.0 mg/kg/injection, schedule: Q04DX002 (ip), vehicle: saline 92 % of control | dose: 200.0 mg/kg/injection, schedule: Q04DX002 (ip), vehicle: saline 95 % of control | dose: 400.0 mg/kg/injection, schedule: Q04DX002 (ip), vehicle: saline 106 % of control

Nc1ccc2nc(N)nc(N)c2c1
inactive: dose: 37.5 mg/kg/injection, schedule: Q01DX009 (ip), vehicle: Klucel (hydroxypropylcellulose) (HPC) 121 % of control | dose: 65.0 mg/kg/injection, schedule: Q04DX003 (ip), vehicle: Klucel (hydroxypropylcellulose) (HPC) 106 % of control | [1] 107 % of control | [3] 112 % of control | [2] 112 % of control

CCCCCCCCCCCCCCCC(=O)c1ccccc1
inactive: dose: 100.0 mg/kg/injection, schedule: Q01DX001 (ip), vehicle: Klucel (hydroxypropylcellulose) (HPC) 106 % of control | dose: 200.0 mg/kg/injection, schedule: Q01DX001 (ip), vehicle: Klucel (hydroxypropylcellulose) (HPC) 103 % of control | dose: 400.0 mg/kg/injection, schedule: Q01DX001 (ip), vehicle: Klucel (hydroxypropylcellulose) (HPC) 88 % of control

COc1ccc2c(CSc3nc(N)nc4nc[nH]c34)cc(=O)oc2c1
inactive: dose: 25.0 mg/kg/injection, schedule: Q04DX002 (ip), vehicle: Klucel (hydroxypropylcellulose) (HPC) 108 % of control | dose: 50.0 mg/kg/injection, schedule: Q04DX002 (ip), vehicle: Klucel (hydroxypropylcellulose) (HPC) 112 % of control | dose: 100.0 mg/kg/injection, schedule: Q04DX002 (ip), vehicle: Klucel (hydroxypropylcellulose) (HPC) 120 % of control | dose: 200.0 mg/kg/injection, schedule: Q04DX002 (ip), vehicle: Klucel (hydroxypropylcellulose) (HPC) 123 % of control | dose: 400.0 mg/kg/injection, schedule: Q04DX002 (ip), vehicle: Klucel (hydroxypropylcellulose) (HPC) 115 % of control

CC[CH2][Sn]([Cl])([Cl])[CH2]CC.Oc1ccccc1C=NCCN=Cc1ccccc1O
inactive: dose: 2.5 mg/kg/injection, schedule: Q01DX009 (ip), vehicle: saline with Tween-80 101 % of control and 109 % of control | dose: 5.0 mg/kg/injection, schedule: Q01DX009 (ip), vehicle: saline with Tween-80 113 % of control | dose: 6.6 mg/kg/injection, schedule: Q01DX009 (ip), vehicle: saline with Tween-80 87 % of control

CCCCCCCCOc1ccc(C(=O)c2ccccc2)c(O)c1
inactive: dose: 100.0 mg/kg/injection, schedule: Q01DX009 (ip), vehicle: Klucel (hydroxypropylcellulose) (HPC) 100 % of control | [3] 94 % of control | dose: 200.0 mg/kg/injection, schedule: Q01DX009 (ip), vehicle: Klucel (hydroxypropylcellulose) (HPC) 101 % of control | dose: 200.0 mg/kg/injection, schedule: Q04DX003 (ip), vehicle: Klucel (hydroxypropylcellulose) (HPC) 96 % of control | dose: 400.0 mg/kg/injection, schedule: Q01DX009 (ip), vehicle: Klucel (hydroxypropylcellulose) (HPC) 94 % of control | dose: 400.0 mg/kg/injection, schedule: Q04DX003 (ip), vehicle: Klucel (hydroxypropylcellulose) (HPC) 94 % of control
